{"source": "patent US20030216471A1", "about": "“Retinoid formulations for aerosolization and inhalation” (priority 2003, published 2003)", "key": {"RAR γ": {"tested_on": "RAR γ", "assay": "Western blot of rat lung, inhaled 13-cis RA (experiment A), RAR γ", "format": "in vivo", "details": "for upregulation of lung tissue RAR (third named, γ): daily deposited dose 6.4 mg/kg/day", "procedure": "(§1) The experimental groups were as follows (Table 4):1. Vehicle (10/9 mix of PEG 300 and Ethanol with 0.5% of ascorbic acid and 0.5% phosphatidyl choline) control, day 1: rats (19) inhaled vehicle for 2 hr for one day; 2. […] Vehicle control, day 28: rats (16) inhaled vehicle as for group 1 for a period of 28 days; 5.\n(§2) Tissues were collected, frozen in dry ice and kept at −70° C. until used. 500 mg aliquots were diced in small pieces and homogenized in 300 μl of cold PBS, using the hand held homogenizer for 2˜3 minutes. Sample and washes were centrifuged at 5000×g for 20 minutes. The pellet was suspended in 400 μl of ice-cold Buffer A [2 μl 0.5M EDTA, 10 μl 100 mM EGTA, 50 μl 100MM PMSF, 10 μl 1M DTT, 10 ml (10 mM HEPES pH 7.9+10 mM KCl)], and left at ice temperature for 15 minutes. 25 μl of 10% solution of NP-40 was added and samples were mixed in a vortex vigorously for 10 seconds. Samples were centrifuged at 14,000×g for 1 minute at 4° C. and the pellet treated once more in this fashion (resuspended etc.). The supernatant was removed and 100 μl of ice-cold Buffer C [4 μl 0.5M EDTA, 20 μl 100 mM EGTA, 20 μl 100 mM PMSF, 2 μl 1M DTT, 2 ml (20 mM HEPES pH 7.9+0.4M NaCl)] was added. Pellets were resuspended by tapping gently on the bottom of the Eppendorf tubes. Samples were rocked vigorously in a bucket of ice on an orbital shaker for 30 minutes. Samples were centrifuged at 14,000×g for 5 minutes at 4° C.\n(§3) Samples were prepared by adding one part of the Sample Buffer to one part of the sample and mixing well. Samples were heated at 95° C. for 5 minutes to induce denaturation. 5 μl of Rainbow Standard and 5 μl of Biotinylated Molecular Marker were added to parallel wells. 20 μg protein per sample was loaded in each lane. Electrophoresis was performed with voltage set at 125V for about 1˜1.5 hours. Gel transfer was executed at 25V for 2 hours. The membrane was stained in Ponceau S. for 5 minutes and destained with one wash of 5% acetic acid. The membrane was then washed in TBS solution until the staining disappeared. […]"}, "A/J mouse": {"tested_on": "A/J mouse", "details": "cited from earlier work; for Efficacy (Carcinogen): 20 weeks, urethane"}, "[1]": {"tested_on": "second aerodigestive tumors", "details": "oral, 1-2 mg/kg/day, previously treated head-and-neck cancer patients; cited from earlier work"}, "RAR α": {"tested_on": "RAR α", "assay": "Western blot of rat lung, inhaled 13-cis RA (experiment A), RAR α", "format": "in vivo", "details": "for upregulation of lung tissue RAR (first named, α): daily deposited dose 6.4 mg/kg/day", "procedure": "as §1, §2, §3"}, "[2]": {"details": "daily deposited dose 1.9 mg/kg/day, day 28"}}, "note": "“Also recorded” adds a separate entry of the source. Like-named read-outs stand apart in the source and are kept apart here. Marks after values point to notes of the source that are not given here."}
{"smiles": "CC1=C(/C=C/C(C)=C/C=C/C(C)=C\\C(=O)O)C(C)(C)CCC1", "note": "[13-cis RA, 13-cis-Retinoic Acid]", "values": [{"measurement": "Body Weights (Mean ± SD) (N)", "setting": "BaP-Treated Mice, Day 102, High Dose", "result": "19.3 ± 1.6 (12)^a,e gms"}, {"measurement": "Body Weights (Mean ± SD) (N)", "setting": "BaP-Treated Mice, Day 102, Low Dose, vehicle control 22.5", "result": "21.8 ± 1.2 (21) gms"}, {"measurement": "Body Weights (Mean ± SD) (N)", "setting": "BaP-Treated Mice, Day 102, Mid Dose", "result": "20.1 ± 1.8 (20)^a,b gms"}, {"measurement": "Body Weights (Mean ± SD) (N)", "setting": "NNK-Treated Mice, Day 102, High Dose", "result": "17.5 ± 1.2 (14)^a,d gms"}, {"measurement": "Body Weights (Mean ± SD) (N)", "setting": "NNK-Treated Mice, Day 102, Low Dose, vehicle control 22.7", "result": "22.1 ± 1.5 (21) gms"}, {"measurement": "Body Weights (Mean ± SD) (N)", "setting": "NNK-Treated Mice, Day 102, Mid Dose", "result": "20.3 ± 1.2 (20)^a,b gms"}, {"measurement": "Body Weights (Mean ± SD) (N)", "setting": "Urethane-Treated Mice, Day 60, High Dose", "result": "18.9 ± 1.7 (12)^a,c gms"}, {"measurement": "Body Weights (Mean ± SD) (N)", "setting": "Urethane-Treated Mice, Day 60, Low Dose, vehicle control 20.8", "result": "21.0 ± 1.2 (21) gms"}, {"measurement": "Body Weights (Mean ± SD) (N)", "setting": "Urethane-Treated Mice, Day 60, Mid Dose", "result": "20.7 ± 1.5 (21) gms"}, {"measurement": "toxicity", "setting": "high dose, daily exposures during first two weeks, listed as isotretinoin", "result": "excessive toxicity to the snout and forelimbs; also recorded: severe toxicity"}, {"measurement": "mice that died", "setting": "high dose, daily exposures for the first two weeks", "result": "~35", "unit": "%"}, {"measurement": "side effects", "setting": "low dose", "result": "without any evidence of side effects"}, {"measurement": "mice that died before the end of exposure", "setting": "mid dose", "result": 3, "unit": "%"}, {"measurement": "time until which dose was tolerated (mice then began losing weight)", "setting": "mid dose", "result": "~12", "unit": "wks"}, {"measurement": "weights below those of vehicle controls at the end of exposure", "setting": "mid dose, NNK- and BaP-treated mice", "result": 11, "unit": "%"}, {"measurement": "induction of lung RAR (third named, γ)", "setting": "RAR γ; [2]", "result": 8.1, "unit": "fold"}, {"measurement": "upregulation of lung tissue RAR (third named, γ)", "setting": "RAR γ; day 1", "result": 9.7, "unit": "fold"}, {"measurement": "upregulation of lung tissue RAR (third named, γ)", "setting": "RAR γ; day 17", "result": 12.9, "unit": "fold"}, {"measurement": "Efficacy (Carcinogen)", "setting": "A/J mouse; 200 mg/kg weekly ingested (po)", "result": "No (urethane)"}, {"measurement": "Efficacy (Carcinogen)", "setting": "A/J mouse; 400 mg/kg weekly ingested (po)", "result": "No (urethane)"}, {"measurement": "prevention of urethane-induced lung cancer", "setting": "A/J mouse; orally administered, over 300 mg/kg weekly, A/J mouse model", "result": "failed to prevent"}, {"measurement": "protection against second aerodigestive tumors", "setting": "[1]", "result": "significantly protective"}, {"measurement": "induction of lung RAR (first named, α)", "setting": "RAR α; [2]", "result": 4.7, "unit": "fold"}, {"measurement": "upregulation of lung tissue RAR (first named, α)", "setting": "RAR α; day 1", "result": 3.4, "unit": "fold"}, {"measurement": "upregulation of lung tissue RAR (first named, α)", "setting": "RAR α; day 17", "result": 4.2, "unit": "fold"}]}
